Laboratory results from ChEMBL document CHEMBL1201862, “PubChem BioAssay data set” (2004).
The source made the active and inactive calls.

Columns and labels:
Coagulation factor XII = target: T1, Coagulation factor XII (Homo sapiens, UniProt P00748); type: functional;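 also: activated factor XIIa alpha cleaving a fluorogenic AMC peptide substrate; inhibitor potency from loss of enzyme activity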
T1 sequence (P00748 whole entry): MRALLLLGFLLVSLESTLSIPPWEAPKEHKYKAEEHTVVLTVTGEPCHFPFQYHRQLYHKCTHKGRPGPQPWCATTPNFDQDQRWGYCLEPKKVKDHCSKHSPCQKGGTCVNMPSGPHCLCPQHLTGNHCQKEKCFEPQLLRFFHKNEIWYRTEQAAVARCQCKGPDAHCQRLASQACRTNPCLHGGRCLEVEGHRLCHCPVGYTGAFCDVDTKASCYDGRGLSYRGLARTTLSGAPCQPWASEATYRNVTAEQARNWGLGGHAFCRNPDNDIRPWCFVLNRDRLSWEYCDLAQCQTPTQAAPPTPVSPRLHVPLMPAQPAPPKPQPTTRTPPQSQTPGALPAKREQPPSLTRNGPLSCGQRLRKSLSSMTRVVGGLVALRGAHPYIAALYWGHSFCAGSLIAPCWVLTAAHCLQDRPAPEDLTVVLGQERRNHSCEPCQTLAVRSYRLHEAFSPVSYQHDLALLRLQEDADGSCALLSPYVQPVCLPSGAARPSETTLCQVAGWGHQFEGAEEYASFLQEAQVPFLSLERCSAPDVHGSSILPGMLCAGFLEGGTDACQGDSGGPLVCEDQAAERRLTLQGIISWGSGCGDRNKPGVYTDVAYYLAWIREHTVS

[1] = target: Eukaryotic translation initiation factor 4H (Homo sapiens, UniProt Q15056); test: eIF4H binding inhibition – biochemical, uHTS, fluorescence polarization, translation initiation inhibitor project, primary screen (AID 2012)
[2] = target: Polyadenylate-binding protein 1 (Homo sapiens, UniProt P11940); test: blockers of PABP interaction with poly(A) – biochemical, fluorescence polarization, […] (AID 2014)
[3] = target: DNA dC->dU-editing enzyme APOBEC-3A (Homo sapiens, UniProt P31941); test: Dose Response confirmation of small molecule APOBEC3A DNA Deaminase Inhibitors via a fluorescence-based single-stranded DNA deaminase assay. [Related pubchem assays (depositor defined):AID493011, AID493024]; type: functional
[4] = target: DNA dC->dU-editing enzyme APOBEC-3G (Homo sapiens, UniProt Q9HC16); type: functional;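 also: Dose-response counterscreen measuring inhibition of APOBEC3G DNA deaminase activity, run while confirming APOBEC3A inhibitors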
Beta-galactosidase = Beta-galactosidase (Escherichia coli, UniProt Q8VNN2); test: detection-enzyme interference by beta-gal modulators – biochemical, E. coli enzyme, set 3, artefact control for CCR6 antagonist project, dose response (AID 504712); type: functional
Nonstructural protein 1 = Nonstructural protein 1 (Influenza A virus, UniProt Q194T2); type: functional, Influenza A virus (A/California/07/2009(H1N1))
[5] = target: Peroxisome proliferator-activated receptor gamma/Nuclear receptor coactivator 2 (Homo sapiens, UniProt P37231); type: functional;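 also: agonist potency for raising coactivator recruitment to the receptor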
[6] = target: Peroxisome proliferator-activated receptor gamma/Nuclear receptor coactivator 1 (Homo sapiens, UniProt P37231); type: functional;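 also: agonist potency as compounds enhance coactivator SRC-1 recruitment to PPARgamma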
[7] = target: Peroxisome proliferator-activated receptor gamma/Nuclear receptor coactivator 3 (Homo sapiens, UniProt P37231); type: functional;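 also: agonist potency for raising coactivator recruitment to the receptor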
[8] = NIH-3T3 fibroblast cytotoxicity, dose response, cytotoxicity control, cell-based, fluorescence, Alamar Blue, secondary assay (AID 2327); type: functional;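 also: NIH-3T3 mouse fibroblasts cultured with fluconazole at 8 µg/mL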
[9] = fluconazole-exposed Candida albicans growth modulators – fluorescence, retest, confirmation (AID 2467); type: functional, cell-based
[10] = Trypanosoma cruzi growth suppression in host cells – NIH3T3 host cells, beta-gal luminescence, confirmation (AID 2044); type: functional, cell-based;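 also: intracellular parasites grown in NIH/3T3 mouse fibroblasts as host cells; luminescent beta-galactosidase reporter signal from transgenic T. cruzi replicating inside host cells; inhibitors lower the luminescence signal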
[11] = NIH3T3 cell viability loss – ATP luminescence, mouse fibroblasts, counter-screen, dose response (AID 2010); type: functional, cell-based;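 also: cells exposed to compound for about 90 hours before reading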
[12] = target: T2, Carboxy-terminal domain RNA polymerase II polypeptide A small phosphatase 1 (Homo sapiens, UniProt Q9GZU7); test: CTDSP1 inhibitors, concentration-response, biochemical, absorbance readout, ultra-high-throughput screen actives (AID 540297); type: functional
T2 sequence (Q9GZU7 whole entry): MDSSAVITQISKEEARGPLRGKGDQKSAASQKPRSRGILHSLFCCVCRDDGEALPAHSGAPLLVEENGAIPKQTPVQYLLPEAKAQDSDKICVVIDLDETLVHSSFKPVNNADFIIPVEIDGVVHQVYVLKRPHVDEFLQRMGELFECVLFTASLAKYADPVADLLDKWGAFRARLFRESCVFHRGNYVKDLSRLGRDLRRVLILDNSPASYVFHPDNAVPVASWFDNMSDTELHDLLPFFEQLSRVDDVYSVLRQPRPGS

[13] = luciferase reporter signal suppression in cells – H4 neuroglioma cells, luminescence, dose response (AID 1990); type: functional, cell-based
[14] = Luminescence Cell-Based Dose Response HTS to Identify Inhibitors of 5'UTR Stem-Loop Driven Prion Protein mRNA Translation in H4 Neuroglioblastoma Cells. [Related pubchem assays: 1827 (Project Summary), 1813 (Primary HTS)]; type: functional
[15] = alpha-synuclein stem-loop luciferase translation blockers – H4 neuroglioma cells, luminescence, confirmation (AID 1988); type: functional, cell-based
[16] = Luminescence-based counterscreen assay for KLF5 inhibitors: dose response cell-based high throughput screening assay to identify cytotoxic compounds using the IEC-6 intestinal epithelial cell line. [Related pubchem assays: 1700 (Primary screen.), 1834 (Confirmation screen.), 1858 (Summary AID.), 1905 (Counterscreen.)]; type: functional
[17] = A549 cell cytotoxicity, dose response, cytotoxicity control, plate reader, cherry-pick, antagonist series (AID 743412); type: functional, cell-based
[18] = toxicity toward HepG2 liver cells – cell-based, plate reader, cherry-pick, antagonist series, cytotoxicity control, dose response (AID 743416); type: functional
[19] = blockers of bursicon-stimulated LGR2 cAMP reporter – cell-based, HEK293, CRE-luciferase reporter, cherry pick, set 2, dose response (AID 743343); type: functional;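 also: transfected cells were stimulated with diluted bursicon conditioned medium after compound addition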
[20] = blockade of melanocortin 4 receptor signaling – cell-based, plate reader, cherry pick, counter-screen for LGR2 antagonist project, dose response (AID 743444); type: functional;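 also: transfected HEK 293 cells stimulated with alpha-MSH peptide; potency of inhibitors of the alpha-MSH evoked signal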
[21] = target: DNA damage-inducible transcript 3 protein (Mus musculus, UniProt P35639); type: functional, Cricetulus griseus
[22] = viability of PTEN-deleted HCT116 cells – cell-based, HCT116 PTEN knockout, dose response (AID 1047); type: functional;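 also: HCT116 colon tumor cells with PTEN knocked out; cells exposed to compound for 60 hours before readout; potency for loss of cell viability measured by luminescence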
[23] = viability of HCT116 lacking mutant beta-catenin – cell-based, human colon tumor, dose response (AID 1045); type: functional;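 also: HCT116 colon tumor cells with beta catenin knocked out; cells exposed to compound for 60 hours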
HEK293 [24] = test: inhibition of NOD1-driven NF-kB reporter – cell-based, luminescence, uHTS, primary screen (AID 1578); type: functional; conditions: Homo sapiens
BJ [25] = test: BJ-TERT fibroblast viability loss – cell-based, RAS-independent, luminescence, dose response (AID 1933); type: functional; conditions: Homo sapiens
HEK293 [26] = test: cells; type: functional, cell-based; conditions: Homo sapiens
BJ [27] = test: cells; type: functional, cell-based; conditions: Homo sapiens
HEK293 [28] = test: cells; type: functional, cell-based; conditions: Homo sapiens; remark: listed apart in the source
[29] = target: Nucleotide-binding oligomerization domain-containing protein 2 (Homo sapiens, UniProt Q9HC29); test: inhibition of NOD2-driven NF-kB reporter – cell-based, luminescence, uHTS, HEK293 (AID 1566); type: functional
HEK293 [30] = test: NOD2 signaling inhibitors in MDP-stimulated cells, cell-based, uHTS, luminescence (AID 2001); type: functional; conditions: Homo sapiens
HEK293 [31] = test: cells; type: functional, cell-based; conditions: Homo sapiens; remark: listed apart in the source
BJ [32] = test: BJ-TERT-LT-ST fibroblast viability loss – cell-based, RAS-independent, luminescence, dose response (AID 1935); type: functional; conditions: Homo sapiens;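 also: BJ fibroblasts immortalized with TERT plus LT and ST oncogenes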
[33] = DRD fibroblast viability loss – cell-based, non-viral oncogenic, luminescence, dose response (AID 1934); type: functional; conditions: Homo sapiens
[34] = target: Luciferin 4-monooxygenase (Photinus pyralis, UniProt P08659); test: Counter Screen for Luciferase-based Assay Positives. [Related pubchem assays: 620, 618, 411 ]
HT-1080 = test: HT1080 cell viability loss – fluorescence readout (AID 620); type: functional, cell-based; conditions: Homo sapiens
[35] = Luminescence Cell-Based Dose Retest to Confirm Inhibitors of Cancer Stem Cells. [Related pubchem assays (depositor defined):AID2717, AID2721]; type: functional; conditions: Homo sapiens
[36] = target: T3, Voltage-gated N-type calcium channel alpha-1B subunit/Amyloid beta A4 precursor protein-binding family A member 1 (Homo sapiens, UniProt Q00975+Q02410); type: protein assay
[37] = target: T3, Voltage-gated N-type calcium channel alpha-1B subunit/Amyloid beta A4 precursor protein-binding family A member 1; type: protein assay; remark: listed apart in the source
[38] = Luminescence Cell-Based Dose Response to Identify Activators of 5'UTR Stem-Loop Driven Prion Protein mRNA Translation in H4-C Neuroglioblastoma Cells. [Related pubchem assays: 1829 (Project Summary), 1814 (Primary HTS)]; type: functional
[39] = Luminescence Cell-Based Dose Response HTS to Identify Activators of Luciferase Translation or Activity in H4 […] Cells. [Related pubchem assays: 1829 (Project Summary), 1814 (Primary HTS)]; type: functional
H4 = test: Luminescence Cell-Based Dose Response HTS to Identify Activators of 5'UTR Stem-Loop Driven Prion Protein mRNA Translation in H4 Neuroglioblastoma Cells. [Related pubchem assays: 1829 (Project Summary), 1814 (Primary HTS)]; type: functional; conditions: Homo sapiens
[40] = Luminescence Cell-Based Dose Response to Identify Activators of Luciferase Translation or Activity in H4-C Neuroglioblastoma Cells. [Related pubchem assays: 1829 (Project Summary), 1814 (Primary HTS)]; type: functional
[41] = Luminescence Cell-Based Dose Confirmation to Identify Activators of 5'UTR Stem-Loop Driven Alpha-Synuclein mRNA Translation in H4 Neuroglioblastoma Cells. [Related pubchem assays: 1829 (Project Summary), 1814 (Primary HTS)]; type: functional
[42] = target: FAD-linked sulfhydryl oxidase ALR (Homo sapiens, UniProt P55789); test: ALR-catalysed DTT oxidation blockers – biochemical, H2O2 detection, luminescence, cherry-pick, dose response (AID 493248)
[43] = luciferase reporter signal reduction – luminescence, H4-C neuroglioblastoma cells, dose response (AID 2458); type: functional, cell-based;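 also: H4 neuroglioblastoma cells stably carrying a luciferase reporter gene fusion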
cells = type: functional, cell-based
[44] = alpha-synuclein stem-loop translation blockers – luminescence, H4 neuroglioblastoma cells, dose confirmation, confirmation (AID 2454); type: functional, cell-based;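 also: H4 neuroglioblastoma cells carrying an alpha-synuclein 5'UTR luciferase reporter; potency for inhibition of the luciferase signal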

Peroxisome proliferator-activated receptor gamma/Nuclear receptor coactivator 3, sequence (P37231 whole entry): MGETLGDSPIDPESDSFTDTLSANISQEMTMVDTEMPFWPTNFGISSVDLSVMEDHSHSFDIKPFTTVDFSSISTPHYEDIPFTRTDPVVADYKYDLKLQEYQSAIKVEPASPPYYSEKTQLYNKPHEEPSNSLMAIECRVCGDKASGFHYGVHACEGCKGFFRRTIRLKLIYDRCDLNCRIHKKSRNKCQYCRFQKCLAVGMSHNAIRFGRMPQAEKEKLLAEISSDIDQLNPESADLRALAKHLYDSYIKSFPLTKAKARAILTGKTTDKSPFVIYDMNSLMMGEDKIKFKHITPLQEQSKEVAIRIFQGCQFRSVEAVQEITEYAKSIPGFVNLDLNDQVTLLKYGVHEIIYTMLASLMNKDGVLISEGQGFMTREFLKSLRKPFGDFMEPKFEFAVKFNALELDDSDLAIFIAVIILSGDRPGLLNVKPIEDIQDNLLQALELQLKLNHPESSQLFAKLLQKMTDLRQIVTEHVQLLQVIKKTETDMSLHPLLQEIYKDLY
Peroxisome proliferator-activated receptor gamma/Nuclear receptor coactivator 3, sequence (Q9Y6Q9 whole entry, further chain): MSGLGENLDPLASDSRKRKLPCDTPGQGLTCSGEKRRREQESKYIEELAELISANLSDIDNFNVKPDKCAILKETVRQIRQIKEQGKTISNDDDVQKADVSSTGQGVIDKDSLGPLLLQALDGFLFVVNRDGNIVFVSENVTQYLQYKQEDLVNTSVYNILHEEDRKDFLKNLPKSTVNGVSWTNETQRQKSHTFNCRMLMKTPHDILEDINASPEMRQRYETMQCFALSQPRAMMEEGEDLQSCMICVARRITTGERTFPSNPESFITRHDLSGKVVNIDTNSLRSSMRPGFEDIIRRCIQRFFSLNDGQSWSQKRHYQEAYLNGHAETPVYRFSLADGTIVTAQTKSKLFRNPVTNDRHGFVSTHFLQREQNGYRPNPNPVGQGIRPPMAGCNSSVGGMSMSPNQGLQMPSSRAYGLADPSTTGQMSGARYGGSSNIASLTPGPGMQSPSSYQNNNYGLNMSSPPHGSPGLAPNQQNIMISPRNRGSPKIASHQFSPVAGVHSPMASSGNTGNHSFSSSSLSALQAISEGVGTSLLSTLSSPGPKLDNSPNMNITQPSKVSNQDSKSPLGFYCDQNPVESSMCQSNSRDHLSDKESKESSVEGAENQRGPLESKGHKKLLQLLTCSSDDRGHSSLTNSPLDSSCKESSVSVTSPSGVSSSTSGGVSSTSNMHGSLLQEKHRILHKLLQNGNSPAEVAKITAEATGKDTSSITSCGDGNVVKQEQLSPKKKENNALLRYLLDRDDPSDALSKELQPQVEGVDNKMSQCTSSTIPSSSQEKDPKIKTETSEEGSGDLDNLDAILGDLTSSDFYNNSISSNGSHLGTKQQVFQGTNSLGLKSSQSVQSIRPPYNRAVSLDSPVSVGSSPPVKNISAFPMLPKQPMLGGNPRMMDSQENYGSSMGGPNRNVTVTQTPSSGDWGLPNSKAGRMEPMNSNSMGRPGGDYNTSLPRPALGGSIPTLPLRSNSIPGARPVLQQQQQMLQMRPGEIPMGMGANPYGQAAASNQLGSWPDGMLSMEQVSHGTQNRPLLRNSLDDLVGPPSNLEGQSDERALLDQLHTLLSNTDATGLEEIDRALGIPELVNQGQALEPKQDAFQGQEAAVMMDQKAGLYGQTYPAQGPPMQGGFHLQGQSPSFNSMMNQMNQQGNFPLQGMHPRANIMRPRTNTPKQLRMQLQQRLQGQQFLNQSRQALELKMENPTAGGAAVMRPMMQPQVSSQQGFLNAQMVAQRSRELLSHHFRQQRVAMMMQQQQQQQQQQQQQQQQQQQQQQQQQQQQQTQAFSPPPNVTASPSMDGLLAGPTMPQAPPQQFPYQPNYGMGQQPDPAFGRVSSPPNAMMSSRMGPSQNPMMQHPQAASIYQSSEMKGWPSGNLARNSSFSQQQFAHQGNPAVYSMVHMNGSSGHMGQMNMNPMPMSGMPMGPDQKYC
Peroxisome proliferator-activated receptor gamma/Nuclear receptor coactivator 1, sequence (P37231 whole entry): as the sequence (P37231 whole entry) above
Peroxisome proliferator-activated receptor gamma/Nuclear receptor coactivator 1, sequence (Q15788 whole entry, further chain): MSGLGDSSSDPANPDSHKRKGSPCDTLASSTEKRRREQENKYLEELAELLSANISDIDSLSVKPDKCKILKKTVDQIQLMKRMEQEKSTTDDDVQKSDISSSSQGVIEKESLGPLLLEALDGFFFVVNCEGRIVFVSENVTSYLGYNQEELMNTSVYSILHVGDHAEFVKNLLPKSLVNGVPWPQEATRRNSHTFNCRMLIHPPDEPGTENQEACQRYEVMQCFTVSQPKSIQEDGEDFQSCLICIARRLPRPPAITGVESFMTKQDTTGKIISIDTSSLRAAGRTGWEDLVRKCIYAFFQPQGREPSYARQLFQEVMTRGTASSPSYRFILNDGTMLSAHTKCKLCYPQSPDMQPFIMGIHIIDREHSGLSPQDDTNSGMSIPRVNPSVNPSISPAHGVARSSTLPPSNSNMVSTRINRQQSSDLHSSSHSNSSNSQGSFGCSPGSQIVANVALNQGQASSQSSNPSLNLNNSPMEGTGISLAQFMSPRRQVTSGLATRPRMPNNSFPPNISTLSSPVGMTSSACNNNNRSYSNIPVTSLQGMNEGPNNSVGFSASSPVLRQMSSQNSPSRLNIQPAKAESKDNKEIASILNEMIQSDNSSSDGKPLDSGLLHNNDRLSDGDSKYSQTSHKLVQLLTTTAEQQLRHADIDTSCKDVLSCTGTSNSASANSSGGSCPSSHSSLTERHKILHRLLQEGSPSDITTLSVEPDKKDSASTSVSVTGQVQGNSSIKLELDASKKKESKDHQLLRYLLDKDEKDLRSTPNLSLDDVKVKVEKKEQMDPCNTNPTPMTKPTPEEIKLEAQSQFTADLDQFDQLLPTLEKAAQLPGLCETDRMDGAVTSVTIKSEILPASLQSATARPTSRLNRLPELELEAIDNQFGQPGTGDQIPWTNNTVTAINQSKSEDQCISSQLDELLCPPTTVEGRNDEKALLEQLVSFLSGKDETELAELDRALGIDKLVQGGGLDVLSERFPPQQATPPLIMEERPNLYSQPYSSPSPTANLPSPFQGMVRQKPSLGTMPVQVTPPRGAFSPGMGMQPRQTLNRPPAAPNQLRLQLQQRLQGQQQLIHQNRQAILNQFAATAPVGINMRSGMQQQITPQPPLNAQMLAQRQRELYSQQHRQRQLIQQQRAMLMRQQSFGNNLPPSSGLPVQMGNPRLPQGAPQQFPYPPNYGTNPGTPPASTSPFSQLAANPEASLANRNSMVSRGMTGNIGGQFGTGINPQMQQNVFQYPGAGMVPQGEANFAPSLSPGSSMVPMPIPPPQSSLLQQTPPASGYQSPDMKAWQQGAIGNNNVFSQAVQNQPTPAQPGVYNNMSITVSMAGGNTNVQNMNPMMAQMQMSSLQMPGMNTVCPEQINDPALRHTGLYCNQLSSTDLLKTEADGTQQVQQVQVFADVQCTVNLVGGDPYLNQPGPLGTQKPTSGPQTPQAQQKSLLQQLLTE
DNA damage-inducible transcript 3 protein, sequence (P35639 whole entry): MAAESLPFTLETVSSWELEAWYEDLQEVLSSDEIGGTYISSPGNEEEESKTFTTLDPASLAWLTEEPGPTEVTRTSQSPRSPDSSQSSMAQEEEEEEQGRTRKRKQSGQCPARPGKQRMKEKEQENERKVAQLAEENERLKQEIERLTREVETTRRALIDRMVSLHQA
DNA dC->dU-editing enzyme APOBEC-3G, sequence (Q9HC16 whole entry): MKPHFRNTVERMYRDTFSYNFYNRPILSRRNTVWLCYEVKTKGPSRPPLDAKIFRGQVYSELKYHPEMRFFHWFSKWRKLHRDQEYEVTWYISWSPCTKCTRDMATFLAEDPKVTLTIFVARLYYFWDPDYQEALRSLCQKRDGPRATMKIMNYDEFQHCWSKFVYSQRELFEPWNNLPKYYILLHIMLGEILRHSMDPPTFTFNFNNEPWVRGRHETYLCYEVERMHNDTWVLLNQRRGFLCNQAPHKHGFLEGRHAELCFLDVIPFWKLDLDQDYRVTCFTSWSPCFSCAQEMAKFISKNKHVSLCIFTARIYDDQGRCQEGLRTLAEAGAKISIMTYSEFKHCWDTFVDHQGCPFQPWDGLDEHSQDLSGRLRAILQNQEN
DNA dC->dU-editing enzyme APOBEC-3A, sequence (P31941 whole entry): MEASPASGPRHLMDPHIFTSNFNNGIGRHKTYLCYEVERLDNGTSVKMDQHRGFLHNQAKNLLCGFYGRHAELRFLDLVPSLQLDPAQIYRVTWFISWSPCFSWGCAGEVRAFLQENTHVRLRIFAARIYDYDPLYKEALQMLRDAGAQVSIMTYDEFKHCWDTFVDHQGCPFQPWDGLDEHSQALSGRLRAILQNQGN

CCn1c(SCC(=O)Nc2cccnc2Cl)nnc1-c1ccccc1
IC50 (Coagulation factor XII): > 50 µM (inactive)

CC(C)[N+](C)(C)CC#CC(O)(c1ccccc1)c1ccccc1
IC50 [1]: > 100 µM (inactive)
IC50 [2]: 9.63 µM (active)
IC50 [3]: 2.55 µM (active)
IC50 [4]: 2.49 µM (active)

O=[N+]([O-])c1ccc(O)c(/C=N/Nc2nn[nH]n2)c1
IC50 (Beta-galactosidase): > 66.6 µM (inactive)
IC50 (Nonstructural protein 1): 1.66 µM (active)

CCCn1c(NC(=O)c2ccc(Br)cc2)nc2ccccc21
EC50 [5]: 9.79 µM (active)
EC50 [6]: 8.96 µM (active)
EC50 [7]: 13.6 µM (not active)

CC1(C)CC(N2CCCC2)=CC(=[N+]2CCCC2)C1
EC50 [8]: > 160 µM (inactive)
EC50 [9]: 2.7 µM (active)
EC50 [10]: 0.693 µM (active)
EC50 [11]: > 60 µM (not active)
IC50 [3]: 1.53 µM (active)
IC50 [4]: 1.47 µM (active)
IC50 [12]: 3.62 µM (active)

CCOc1ccc(CCNC(=O)CSc2nn(-c3ccc(C)c(Cl)c3)c(=S)s2)cc1OCC
EC50 [5]: 51.9 µM (not active)
EC50 [6]: > 79.4 µM (not active)
EC50 [7]: > 79.4 µM (not active)

CCOC(=O)CNC(=O)Cc1ccc(OC)cc1
IC50 (Coagulation factor XII): > 50 µM (inactive)

COC(=O)c1c(N)sc(C(=O)NCCc2ccccc2)c1C
EC50 [13]: 3.07 µM (active)
EC50 [14]: 0.394 µM (active)
EC50 [15]: 0.213 µM (active)
IC50 [16]: > 39.8 µM (not active)
AC50 [17]: > 52 µM (inactive)
AC50 [18]: > 52 µM (inactive)
AC50 [19]: 1.44 µM (active)
AC50 [20]: 1.94 µM (active)

O=C(c1ccc(Cl)cc1)c1c[nH]c(C(=O)NNc2cccc(Cl)n2)c1
Absolute IC50 (CHOP) [21]: 10 µM

COc1ccc(OC)c2sc(NC(=O)c3ccc(Cl)s3)nc12
EC50 [22]: 11.8 µM (active)
EC50 [23]: 9.28 µM (active)
Absolute IC50 (CHOP) [21]: 10 µM

COc1cc(/C=C/c2ccc3cccc(O)c3n2)cc(Br)c1OC
EC50 (HEK293 [24]): > 20 µM (inactive)
EC50 (BJ [25]): 10.2 µM (active)
IC50 (HEK293 [26]): 10.4 µM (active)
EC50 (BJ [27]): 35.8 µM (active)
IC50 (HEK293 [28]): > 20 µM (inactive)
EC50 [29]: > 20 µM (inactive)
IC50 (HEK293 [30]): 4.13 µM (inactive)
EC50 [10]: 0.699 µM (active)
IC50 (HEK293 [31]): > 20 µM (inactive)
EC50 [11]: 9.61 µM (active)
EC50 (BJ [32]): 21.1 µM (active)
EC50 [33]: 21.1 µM (active)

CCCCCCOc1ccc(CN2CCN(CCO)CC2)cc1
EC50 [34]: 1.74 µM (active)
EC50 (HT-1080): > 50 µM (not active)
AC50 [35]: < 0.16 µM (active)

COc1ccc2nc(O)c(CN(C3CCCCC3)C(c3nnnn3Cc3ccco3)C(C)C)cc2c1 (configuration not stated)
IC50 [36]: 25.9 µM (active)
IC50 [37]: 3.17 µM (active)

O=C(CSc1nnnn1Cc1ccccc1)NCC(=O)c1ccccc1
EC50 [5]: 45.9 µM (not active)
EC50 [6]: > 79.4 µM (not active)
EC50 [7]: 84.7 µM (not active)

CN(C)c1ccc(/C=C/c2nnnn2-c2ccccc2)cc1
EC50 [38]: 0.463 µM (active)
EC50 [39]: < 0.1 µM (inconclusive)
EC50 (H4): < 0.1 µM (active)
EC50 [40]: 0.323 µM (active)
EC50 [41]: 0.365 µM (active)
AC50 [42]: 0.894 µM (active)

Cc1ccc2nc(NC(=O)CCCc3nc4ccccc4s3)sc2c1
EC50 [13]: 0.499 µM (active)
EC50 [43]: 1.6 µM (active)
EC50 (cells): > 12 µM (not active)
EC50 [15]: < 0.1 µM (active)
IC50 [16]: > 39.8 µM (not active)
EC50 [44]: 1.54 µM (active)

CC(C)(C#CCCCCC#CC(C)(C)[N+](C)(C)C)[N+](C)(C)C
IC50 [1]: > 100 µM (inactive)
IC50 [2]: 7.97 µM (active)
